Data set [1] has as its system PNT-2 non-malignant prostate cell line (immortalized with SV40). The data set is described as follows: MTT cytotoxicity (chemosensitivity) assay, 96 h, non-malignant cells. The following applies: 37°C, 5% CO2, read-out: IC50 values (μM) ± SD, PNT-2. Type of data set: cell-based, human. The protocol:
A SI value >1 indicates increased selectivity for the cancerous cell line over the non-malignant one, whilst a SI value <1 indicates the inverse (i.e., increased selectivity for the non-malignant cell line over the cancerous one). […]
(§1) In vitro chemosensitivity assays were performed against human ovarian carcinoma (A2780), cisplatin-resistant human ovarian carcinoma (A2780cisR) and human breast adenocarcinomas (MCF-7 and MDA-MB-231). Additionally, growth inhibitory effects were also tested against non-malignant prostate cell line immortalised with SV40, PNT-2. All cell lines were provided by the Institute of Cancer Therapeutics, University of Bradford and were routinely maintained as monolayer cultures in RPMI 1640 media supplemented with 10% foetal calf serum, sodium pyruvate (1 mM) and L-glutamine (2 mM). All assays were conducted in 96-well round bottom plates, with control lanes for media and 100% cell growth. Cell concentrations of 1 x 10^4 cells/mL were used, and 100 µL (or 100 µL media in control lane 1) of cell suspension were incubated for 24 h at 37 °C and 5% CO2 prior to drug exposure.
(§2) 100 mM stock solutions, which were further diluted with complete me dia to provide a range of final concentrations. After 24 h, 100 μL of the drug/media solutions were added to the plates (columns 3-12 drug concentrations, with 100 µL media in the control lanes), and then the plates incubated for 96 h at 37°C and 5% CO2. All drug solutions were added to the plates so that the final DMSO concentrations were <0.1% (v/v) in all cases. After 96 h, 3-(4,5-dimethylthiazol-2-yl)-2,5-diphenyltetrazolium bromide (MTT) (20 µL, 5 mg/mL) was added to each well and incubated for 3 h at 37 °C and 5% CO2. All solutions were then removed via pipette, 150 μL DMSO added to each well and the formazan crystals mixed thoroughly. A Thermo Scientific Multiscan EX microplate photometer was used to measure the absorbance of each well at 540 nm. Percentage cell viabilities were determined on a logarithmic scale, and the half maximal inhibitory concentration (IC50) determined from a plot of % cell survival versus concentration (µM). Each of the experiments was performed as duplicate technical repeats and triplicate experimental repeats, with mean values as the IC50 ± Standard Deviation (SD).

For data set [2], the system named is A2780cisR cisplatin-resistant ovarian carcinoma cells. The data set is described as follows: MTT cytotoxicity (chemosensitivity) assay, 96 h. The class given is cell-based, human. The following applies: for IC50: 96 h incubation, MTT, 37°C, 5% CO2, read-out: IC50 values (μM) ± SD, A2780cisR; for Selectivity Index (SI), A2780cisR compared to PNT-2: IC50 PNT-2 divided by IC50 A2780cisR, * = minimum SI value. The protocol:
(§3) The IC50 values were obtained via the MTT assay after a 96 h incubation period of each compound with the cells at 37°C and 5% CO2 (Table 2; Figure 6). […]
as §1, §2

The subject of data set [3] is MCF-7 breast adenocarcinoma cells. The data set can be described thus: MTT cytotoxicity (chemosensitivity) assay, 96 h. The class given is cell-based, human. The following applies: for IC50: 96 h incubation, MTT, 37°C, 5% CO2, read-out: IC50 values (μM) ± SD, MCF-7; for Selectivity Index (SI), MCF-7 compared to PNT-2: IC50 PNT-2 divided by IC50 MCF-7, * = minimum SI value. The protocol:
as §3, §1, §2

The subject of data set [4] is MDA-MB-231 breast adenocarcinoma cells. The data set is described as follows: MTT cytotoxicity (chemosensitivity) assay, 96 h. The class given is cell-based, human. The following applies: for IC50: 96 h incubation, MTT, 37°C, 5% CO2, read-out: IC50 values (μM) ± SD, MDA-MB-231; for Selectivity Index (SI), MDA-MB-231 compared to PNT-2: IC50 PNT-2 divided by IC50 MDA-MB-231, * = minimum SI value. The protocol: as §3, §1, §2

For data set [5], the system named is A2780 cisplatin-sensitive ovarian carcinoma cells. The data set can be described thus: MTT cytotoxicity (chemosensitivity) assay, 96 h. Type of data set: cell-based, human. The following applies: for IC50: 96 h incubation, MTT, 37°C, 5% CO2, read-out: IC50 values (μM) ± SD, A2780; for Selectivity Index (SI), A2780 compared to PNT-2: IC50 PNT-2 divided by IC50 A2780, * = minimum SI value. The protocol:
as §3, §1, §2

The subject of data set [6] is A2780, A2780cisR, MCF-7 and MDA-MB-231 cells. The data set can be described thus: MTT cytotoxicity assay, 96 h, range over all cancer cell lines. The class given is cell-based. The following applies: Homo sapiens, read-out: IC50 values against all cell lines (range). As for the experimental part: as §3
as §1, with “Cell concentrations of 1 x 10^4 cells/mL were used, and 100 µL (or 100 µL media in control lane 1) of cell suspension were incubated for 24 h at 37 °C and 5% CO2 prior to drug exposure.” left out
100 mM stock solutions, which were further diluted with complete me dia to provide a range of final concentrations. […] A Thermo Scientific Multiscan EX microplate photometer was used to measure the absorbance of each well at 540 nm. Percentage cell viabilities were determined on a logarithmic scale, and the half maximal inhibitory concentration (IC50) determined from a plot of % cell survival versus concentration (µM). […]

Where [7] appears, read: Homo sapiens, PNT2, 96 h incubation.

Each structure is given as a SMILES string. Read-outs that look alike come from different tables or passages of the source.

What is called IC50 is the concentration needed to halve the response being measured. Take `N.N.O=C([O-])C1(C(=O)[O-])CCC1.[Pt+2]` [CARB, carboplatin, reference compound]: the IC50 in data set [1] (96 h incubation) is 27 ± 2 µM; in data set [2], > 100 µM; in data set [3], > 100 µM; in data set [4] it was 33 ± 2 µM; in data set [5] it was 17 ± 1 µM. In data set [2], the “Selectivity Index (SI), A2780cisR compared to PNT-2” value (“Selectivity Index (SI), A2780cisR” below) was > 0.3. The “Selectivity Index (SI), MCF-7 compared to PNT-2” value in data set [3] was > 0.3. In addition, the “Selectivity Index (SI), MDA-MB-231 compared to PNT-2” value in data set [4] turned out to be 0.8.

`[NH2][Pt]([NH2])([Cl])[Cl]` [CDDP, cisplatin, reference compound]: the IC50 was found to be 8.5 ± 0.4 µM in data set [1] (96 h incubation); 14 ± 1 µM in data set [2]; 1.5 ± 0.2 µM in data set [3]; 3.07 ± 0.02 µM in data set [4]; 1.3 ± 0.1 µM in data set [5]. In addition, the “Selectivity Index (SI), A2780cisR” value in data set [2] turned out to be 0.6. Besides, in data set [3], the “Selectivity Index (SI), MCF-7 compared to PNT-2” value amounted to 5.6. For the same compound, the “Selectivity Index (SI), MDA-MB-231 compared to PNT-2” value in data set [4] amounted to 2.8.

Regarding `CC(=O)Nc1ccccc1NC(=O)c1cccc(C(=O)Nc2ccccc2NC(C)=O)n1` [Compound 1], the IC50 is > 100 µM in data set [1] (setting [7]); ≥ 63 µM in data set [6]; > 100 µM in data set [2] (Homo sapiens, A2780cisR); > 100 µM in data set [3] (Homo sapiens, MCF7); 63 ± 4 µM in data set [4] (Homo sapiens, MDA-MB-231); 77 ± 5 µM in data set [5] (Homo sapiens, A2780). Also, the “Selectivity Index (SI), MDA-MB-231 compared to PNT-2” value in data set [4] is > 1.6. Also, the “Selectivity Index (SI), A2780 compared to PNT-2” value in data set [5] is reported as > 1.3.

In the case of `CC(C)(C)OC(=O)Nc1ccccc1NC(=O)c1cccc(C(=O)Nc2ccccc2NC(=O)OC(C)(C)C)n1` [Compound 2], the IC50 in data set [1] (setting [7]) is > 100 µM; in data set [2] (Homo sapiens, A2780cisR) it was > 100 µM; in data set [3] (Homo sapiens, MCF7), 84 ± 3 µM; in data set [4] (Homo sapiens, MDA-MB-231) it was 69 ± 3 µM; in data set [5] (Homo sapiens, A2780), 24 ± 0.9 µM. Further, in data set [2] (96 h MTT), the “cytotoxicity in words, A2780cisR” value was “moderate to non-cytotoxic”. The “cytotoxicity in words, MCF-7” value in data set [3] (96 h MTT) was “moderate to non-cytotoxic”. Further, the “Selectivity Index (SI), MCF-7 compared to PNT-2” value in data set [3] was > 1.2. Besides, in data set [4] (96 h MTT), the “cytotoxicity in words, MDA-MB-231” value is on record as “moderate to non-cytotoxic”. The “Selectivity Index (SI), MDA-MB-231 compared to PNT-2” value in data set [4] is recorded as > 1.4. Further, in data set [5], the “Selectivity Index (SI), A2780 compared to PNT-2” value was > 4.2.

In the case of `Nc1ccccc1NC(=O)c1cccc(C(=O)Nc2ccccc2N)n1` [Compound 3], the IC50 in data set [1] (setting [7]) is > 100 µM; in data set [2] (Homo sapiens, A2780cisR), 61 ± 2 µM; in data set [3] (Homo sapiens, MCF7) it was > 100 µM; in data set [4] (Homo sapiens, MDA-MB-231), > 100 µM; in data set [5] (Homo sapiens, A2780), > 100 µM. Moreover, the “Selectivity Index (SI), A2780cisR” value in data set [2] was > 1.6. Further, the “cytotoxicity in words, A2780” value in data set [5] (96 h MTT) is “non-toxic”.

As to `O=C1[O][Pt]2([NH][C@@H]3CCCC[C@H]3[NH]2)[O]C1=O` [OXA, oxaliplatin, reference compound], the IC50 in data set [1] (96 h incubation) is 1.3 ± 0.2 µM. Moreover, in data set [2], the IC50 came to 2.09 ± 0.03 µM and the “Selectivity Index (SI), A2780cisR” value was 0.6. Moreover, in data set [3], the 50% inhibitory concentration (IC50) came out at 2.6 ± 0.2 µM and the “Selectivity Index (SI), MCF-7 compared to PNT-2” value was determined as 0.5. In data set [4], the IC50 was 2.5 ± 0.6 µM and the “Selectivity Index (SI), MDA-MB-231 compared to PNT-2” value amounted to 0.5. For the same compound, in data set [5], the IC50 was found to be 0.505 ± 0.002 µM and the “Selectivity Index (SI), A2780 compared to PNT-2” value was 2.6.

The record behind these values is publication PMC8277928, “Influence of Terminal Functionality on the Crystal Packing Behaviour and Cytotoxicity of Aromatic Oligoamides” (Frontiers in Chemistry, 2021).
